In the NIST ThermoML archive (doi:10.1021/je800110r):
Values joined by “and” are separate entries in the source; they are usually repeats but may differ in a detail not shown here. Equal entries are not always repeated. Numbers after ± are expanded uncertainties.

Settings: Liquid, Vibrating tube method

CCCCCCCCCC [decane]
Settings	mass density
303.16 K, 24314 kPa	740.3 ± 2 kg/m3
303.16 K, 24549 kPa	740.5 ± 2 kg/m3
303.16 K, 24602 kPa	740.4 ± 2 kg/m3
303.16 K, 24630 kPa	740.5 ± 2 kg/m3
303.16 K, 24682 kPa	740.5 ± 2.1 kg/m3
303.16 K, 24710 kPa	740.6 ± 2.1 kg/m3
303.16 K, 24755 kPa	740.6 ± 2.1 kg/m3
303.16 K, 24776 kPa	740.5 ± 2.1 kg/m3
303.16 K, 25088 kPa	740.7 ± 2.1 kg/m3
303.16 K, 25114 kPa	740.9 ± 2.1 kg/m3
303.16 K, 25147 kPa	740.9 ± 2.1 kg/m3
303.16 K, 25173 kPa	740.9 ± 2.1 kg/m3
303.16 K, 25208 kPa	740.9 ± 2.1 kg/m3
303.16 K, 25234 kPa	740.9 ± 2.1 kg/m3
303.16 K, 25263 kPa	740.9 ± 2.1 kg/m3
303.16 K, 25293 kPa	741 ± 2.1 kg/m3
303.16 K, 25324 kPa	740.9 ± 2.1 kg/m3
303.16 K, 25354 kPa	741.1 ± 2.1 kg/m3
303.16 K, 25385 kPa	741.1 ± 2.1 kg/m3
303.16 K, 25420 kPa	741.1 ± 2.1 kg/m3
303.16 K, 25450 kPa	741 ± 2.1 kg/m3
303.16 K, 25481 kPa	741.1 ± 2.1 kg/m3
303.16 K, 25524 kPa	741.1 ± 2.1 kg/m3
303.16 K, 25559 kPa	741.1 ± 2.1 kg/m3
303.16 K, 25586 kPa	741.1 ± 2.1 kg/m3
303.16 K, 25617 kPa	741.1 ± 2.1 kg/m3
303.16 K, 25802 kPa	741.3 ± 2.1 kg/m3
303.17 K, 10063 kPa	730.2 ± 2 kg/m3
303.17 K, 10074 kPa	730.3 ± 2 kg/m3
313.14 K, 1292 kPa	715.7 ± 2 kg/m3
313.14 K, 1332 kPa	715.8 ± 2 kg/m3
313.14 K, 1362 kPa	715.8 ± 2 kg/m3
313.14 K, 1410 kPa	715.8 ± 2 kg/m3
313.14 K, 1449 kPa	715.7 ± 2 kg/m3
313.14 K, 1483 kPa	715.9 ± 2 kg/m3
313.14 K, 1531 kPa	715.8 ± 2 kg/m3
313.14 K, 1584 kPa	715.9 ± 2 kg/m3
313.14 K, 1629 kPa	716 ± 2 kg/m3
313.14 K, 1669 kPa	716 ± 2 kg/m3
313.14 K, 1710 kPa	716.1 ± 2 kg/m3
313.14 K, 1760 kPa	716.1 ± 2 kg/m3
313.14 K, 1825 kPa	716.1 ± 2 kg/m3
313.14 K, 1889 kPa	716.2 ± 2 kg/m3
313.14 K, 1951 kPa	716.3 ± 2 kg/m3
313.14 K, 2000 kPa	716.3 ± 2 kg/m3
313.14 K, 2044 kPa	716.3 ± 2 kg/m3
313.14 K, 2096 kPa	716.3 ± 2 kg/m3
313.14 K, 2138 kPa	716.4 ± 2 kg/m3
313.14 K, 2175 kPa	716.4 ± 2 kg/m3
313.14 K, 2217 kPa	716.4 ± 2 kg/m3
313.14 K, 2260 kPa	716.5 ± 2 kg/m3
313.14 K, 2304 kPa	716.5 ± 2 kg/m3
313.14 K, 2364 kPa	716.6 ± 2 kg/m3
313.14 K, 2419 kPa	716.7 ± 2 kg/m3
313.14 K, 2474 kPa	716.7 ± 2 kg/m3
313.14 K, 2523 kPa	716.8 ± 2 kg/m3
313.14 K, 2591 kPa	716.7 ± 2 kg/m3
313.14 K, 2653 kPa	716.8 ± 2 kg/m3
313.14 K, 2699 kPa	716.8 ± 2 kg/m3
313.14 K, 2782 kPa	717 ± 2 kg/m3
313.14 K, 2826 kPa	717.1 ± 2 kg/m3
313.14 K, 2854 kPa	717 ± 2 kg/m3
313.14 K, 2900 kPa	716.9 ± 2 kg/m3
313.14 K, 2941 kPa	717.2 ± 2 kg/m3
313.14 K, 2970 kPa	717 ± 2 kg/m3
313.14 K, 3000 kPa	717.1 ± 2 kg/m3
313.14 K, 3048 kPa	717.2 ± 2 kg/m3
313.14 K, 3086 kPa	717.2 ± 2 kg/m3
313.14 K, 3137 kPa	717.3 ± 2 kg/m3
313.14 K, 3192 kPa	717.3 ± 2 kg/m3
313.14 K, 3234 kPa	717.4 ± 2 kg/m3
313.14 K, 3277 kPa	717.4 ± 2 kg/m3
313.14 K, 3305 kPa	717.4 ± 2 kg/m3
313.14 K, 3306 kPa	717.5 ± 2 kg/m3
313.14 K, 3307 kPa	717.5 ± 2 kg/m3
313.14 K, 3322 kPa	717.5 ± 2 kg/m3
313.14 K, 3343 kPa	717.4 ± 2 kg/m3
313.14 K, 3360 kPa	717.4 ± 2 kg/m3
313.14 K, 3378 kPa	717.5 ± 2 kg/m3
313.14 K, 3404 kPa	717.4 ± 2 kg/m3
313.14 K, 3422 kPa	717.5 ± 2 kg/m3
313.14 K, 3447 kPa	717.5 ± 2 kg/m3
313.14 K, 3468 kPa	717.6 ± 2 kg/m3
313.14 K, 3499 kPa	717.6 ± 2 kg/m3
313.14 K, 3518 kPa	717.6 ± 2 kg/m3
313.14 K, 3549 kPa	717.7 ± 2 kg/m3
313.14 K, 3576 kPa	717.6 ± 2 kg/m3
313.14 K, 3598 kPa	717.8 ± 2 kg/m3
313.14 K, 3629 kPa	717.7 ± 2 kg/m3
313.14 K, 3654 kPa	717.7 ± 2 kg/m3
313.14 K, 3674 kPa	717.8 ± 2 kg/m3
313.14 K, 3693 kPa	717.8 ± 2 kg/m3
313.14 K, 3713 kPa	717.8 ± 2 kg/m3
313.14 K, 3739 kPa	717.8 ± 2 kg/m3
313.14 K, 3768 kPa	717.8 ± 2 kg/m3
313.14 K, 3821 kPa	717.9 ± 2 kg/m3
313.14 K, 3843 kPa	718 ± 2 kg/m3
313.14 K, 3850 kPa	717.8 ± 2 kg/m3
313.14 K, 3853 kPa	717.9 ± 2 kg/m3
313.14 K, 3854 kPa	717.9 ± 2 kg/m3
313.14 K, 3856 kPa	717.8 ± 2 kg/m3
313.14 K, 3858 kPa	717.9 ± 2 kg/m3
313.14 K, 3860 kPa	717.9 ± 2 kg/m3
313.14 K, 3862 kPa	717.9 ± 2 kg/m3
313.14 K, 3864 kPa	717.9 ± 2 kg/m3
313.14 K, 3865 kPa	717.9 ± 2 kg/m3 and 717.8 ± 2 kg/m3
313.14 K, 3876 kPa	717.9 ± 2 kg/m3
313.14 K, 3895 kPa	718 ± 2 kg/m3
313.14 K, 3915 kPa	718 ± 2 kg/m3
313.14 K, 3933 kPa	718.1 ± 2 kg/m3
313.14 K, 3949 kPa	717.9 ± 2 kg/m3
313.14 K, 3970 kPa	718 ± 2 kg/m3
313.14 K, 3989 kPa	718.1 ± 2 kg/m3
313.14 K, 4003 kPa	718.1 ± 2 kg/m3
313.14 K, 4028 kPa	718.1 ± 2 kg/m3
313.14 K, 4048 kPa	718 ± 2 kg/m3
313.14 K, 4070 kPa	718.1 ± 2 kg/m3
313.14 K, 4098 kPa	718.1 ± 2 kg/m3
313.14 K, 4121 kPa	718.1 ± 2 kg/m3
313.14 K, 4141 kPa	718.2 ± 2 kg/m3
313.14 K, 4159 kPa	718.2 ± 2 kg/m3
313.14 K, 4186 kPa	718.2 ± 2 kg/m3
313.14 K, 4203 kPa	718.3 ± 2 kg/m3
313.14 K, 4224 kPa	718.3 ± 2 kg/m3
313.14 K, 4245 kPa	718.3 ± 2 kg/m3
313.14 K, 4267 kPa	718.3 ± 2 kg/m3
313.14 K, 4287 kPa	718.2 ± 2 kg/m3
313.14 K, 4309 kPa	718.3 ± 2 kg/m3
313.14 K, 4328 kPa	718.3 ± 2 kg/m3
313.14 K, 4357 kPa	718.4 ± 2 kg/m3
313.14 K, 4386 kPa	718.4 ± 2 kg/m3
313.14 K, 4407 kPa	718.4 ± 2 kg/m3
313.14 K, 4434 kPa	718.3 ± 2 kg/m3
313.14 K, 4451 kPa	718.4 ± 2 kg/m3
313.14 K, 4477 kPa	718.5 ± 2 kg/m3
313.14 K, 4494 kPa	718.5 ± 2 kg/m3
313.14 K, 4509 kPa	718.5 ± 2 kg/m3
